Data as given in US7799775B2, “Pyrimidine derivatives” (ASKA Pharmaceutical Co., Ltd., priority 2004, dated 2010).
One block for each molecule: values may come before it.

Assays:
[1] = biological target: T1, 5-HT3 receptor (Rattus norvegicus, UniProt P35563); assay: Measurement of 5-HT3 receptor antagonistic action on rats (in vivo): inhibition of serotonin-induced bradycardia (BJ reflex); settings: anesthetized SD male rats, serotonin 300 μg/kg 10 minutes later
T1 construct: from tissue; host or cells: whole animal (SD male rats), serotonin-induced bradycardia
T1 sequence (P35563 24-483): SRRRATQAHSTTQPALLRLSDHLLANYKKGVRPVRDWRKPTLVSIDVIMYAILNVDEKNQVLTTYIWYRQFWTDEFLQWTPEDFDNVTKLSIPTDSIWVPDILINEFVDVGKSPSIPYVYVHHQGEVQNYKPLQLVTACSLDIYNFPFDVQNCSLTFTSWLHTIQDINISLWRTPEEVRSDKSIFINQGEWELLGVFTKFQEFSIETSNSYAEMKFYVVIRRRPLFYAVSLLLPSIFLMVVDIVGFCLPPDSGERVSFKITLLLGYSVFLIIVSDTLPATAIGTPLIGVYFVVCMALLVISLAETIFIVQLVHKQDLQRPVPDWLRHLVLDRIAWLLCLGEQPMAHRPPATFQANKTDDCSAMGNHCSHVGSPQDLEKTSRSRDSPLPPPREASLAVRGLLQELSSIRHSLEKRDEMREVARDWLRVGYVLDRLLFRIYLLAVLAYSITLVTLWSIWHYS
Method: (4) Measurement of 5-HT3 Receptor Antagonistic Action on Rats (in Vivo)
SD male rats (weighing 270-410 g) were anesthetized by peritoneal administration of 1.25 g/kg of urethane (as dissolved in distilled water), and then catheters for measuring blood pressure and heart rate were inserted into their left carotid artery and a catheter for administration of test compound was inserted into their […]. After their blood pressure and heart rate were stabilized, 300 μg/kg of 5-hydroxytryptamine creatinine sulfate (serotonin) was rapidly intravenously administered and thereby induced transient bradycardiac reaction (BC 1) was observed. When the blood pressure and heart rate were re-stabilized after the serotonic administration, the test compounds were intravenously administered to the rats. Ten minutes thereafter, 300 μg/kg of serotonin was once again rapidly intravenously administered and thereby induced transient bradycardiac reaction (BC 2) was observed. Percent inhibition of bradycardia manifestation of each test compound, i.e., BJ reflex inhibition, can be calculated according to the following expression: […]

[2] = test system: rats under restraint stress; assay: Measurement of defecation acceleration in rats under restraint stress; type: in vivo, rat; settings: 1 hour restraint stress, group average (Normal 1.7, Control 6.8)
Method: (5) Measurement of Defecation Acceleration in Rats under Restraint Stress […] Feed and drinking water were left for their free ingestion until the morning of the day on which the test was given. On the day of the experiment, test compounds were orally administered and positive control solution (the used compounds were dissolved in 1N-hydrochloric acid and diluted with a suitable amount of saline) was administered intraperitoneally. Five (5) minutes thereafter, under lightly anesthetized condition, the rats were placed under restraint stress, with their upper half of the bodies including the front feet immobilized with gum tape. The restraint stress loading was conducted for an hour, and the number of excrements discharged during that period was counted. […] Those compounds which were used as the positive control chemicals used in the acceleration of defecation in rats under restraint stress are identified with the following structures.

SMILES: Clc1ccc2ccnc(N3CCNCC3)c2c1 [Production Example 49, 7-chloro-1-piperazin-1-ylisoquinoline]
- BC Inhibition (%) ([1]; dose 1.0 mg/kg intravenous): 96.8%

- BC Inhibition (%) ([1]; dose 0.1 mg/kg intravenous): 49.1%
SMILES: Nn1c(CCCCN2CCN(c3ccc4ccccc4n3)CC2)nc2cccc(Cl)c2c1=O [Example 4-25, 3-amino-5-chloro-2-[4-(4-quinolin-2-ylpiperazin-1-yl)butyl]-3H-quinazolin-4-one]

SMILES: c1cc2ccsc2c(N2CCN3CCC[C@H]3C2)n1 [Production Example 103, 7-((8aS)-octahydropyrrolo[1,2-a]pyrazin-2-yl)thieno[2,3-c]pyridine]
- BC Inhibition (%) ([1]; dose 3.0 mg/kg intravenous): 57.6%

SMILES: COc1ccc2ccnc(N3CCN4CCC[C@H]4C3)c2c1 [Production Example 72, 1-((8aS)-octahydropyrrolo[1,2-a]pyrazin-2-yl)-7-methoxyisoquinoline]
- BC Inhibition (%) ([1]; dose 0.3 mg/kg intravenous): 72.5%

SMILES: COc1ccc2ccnc(N3CCNC(C)C3)c2c1 (centres unmarked) [Production Example 38, 7-methoxy-1-(3-methylpiperazin-1-yl)isoquinoline]
- BC Inhibition (%) ([1]; dose 1.0 mg/kg intravenous): 82.9%

- BC Inhibition (%) ([1]; dose 1.0 mg/kg intravenous): 85.4%
SMILES: CCn1c(CCCCN2CCN(c3cc(C)c4ccccc4n3)CC2)nc2c(c1=O)CCCC2 [Example 7-7, 3-ethyl-2-[4-[4-(4-methylquinolin-2-yl)piperazin-1-yl]butyl]-5,6,7,8-tetrahydro-3H-quinazolin-4-one]

SMILES: Clc1ccc2ccnc(N3CCN4CCC[C@H]4C3)c2c1 [Production Example 73, 7-chloro-1-((8aS)-octahydropyrrolo[1,2-a]pyrazin-2-yl)isoquinoline]
- BC Inhibition (%) ([1]; dose 0.01 mg/kg intravenous): 52.2%

SMILES: Cc1ccc2ccnc(N3CCN(C)CC3)c2c1 [Production Example 47, 7-methyl-1-(4-methylpiperazin-1-yl)isoquinoline]
- BC Inhibition (%) ([1]; dose 1.0 mg/kg intravenous): 89.9%

- BC Inhibition (%) ([1]; dose 1.0 mg/kg intravenous): 90.1%
SMILES: Nn1c(CCCCN2CCN(c3ccc4ccccc4n3)CC2)nc2ccccc2c1=O [Example 4-3, 3-amino-2-[4-(4-quinolin-2-ylpiperazin-1-yl)butyl]-3H-quinazolin-4-one]

- BC Inhibition (%) ([1]; dose 0.1 mg/kg intravenous): 35.6%
SMILES: Nn1c(CCCCN2CCN(c3ccc4ccccc4n3)CC2)nc2ccsc2c1=O [Example 4-18, 3-amino-2-[4-(4-quinolin-2-ylpiperazin-1-yl)butyl]-3H-thieno[3,2-d]-pyrimidin-4-one]

- BC Inhibition (%) ([1]; dose 0.01 mg/kg intravenous): 64.7%
SMILES: Cn1c(CCCCN2CCN(c3ccc4ccccc4n3)CC2)nc2ccccc2c1=O [Example 7-20, 3-methyl-2-[4-(4-quinolin-2-ylpiperazin-1-yl)butyl]-3H-quinazolin-4-one]
- Number of excrements ([2]; 1 mg/kg oral administration): 5.4
- Number of excrements ([2]; 3 mg/kg oral administration): 3.6
- Number of excrements ([2]; 10 mg/kg oral administration): 2.4

SMILES: c1cc2sccc2c(N2CCN3CCC[C@H]3C2)n1 [Production Example 104, 4-((8aS)-octahydropyrrolo[1,2-a]pyrazin-2-yl)thieno[3,2-c]pyridine]
- BC Inhibition (%) ([1]; dose 10.0 mg/kg intravenous): 46.1%

- BC Inhibition (%) ([1]; dose 0.1 mg/kg intravenous): 70.4%
SMILES: Nn1c(CCCCN2CCN(c3ccc4ccccc4n3)CC2)nc2c(c1=O)CCCC2 [Example 4-1, 3-amino-2-[4-(4-quinolin-2-ylpiperazin-1-yl)butyl]-5,6,7,8-tetrahydro-3H-quinazolin-4-one]
- Number of excrements ([2]; 0.3 mg/kg intraperitoneal administration): 5.3
- Number of excrements ([2]; 1 mg/kg intraperitoneal administration): 4.3
- Number of excrements ([2]; 3 mg/kg intraperitoneal administration): 2.1

- BC Inhibition (%) ([1]; dose 0.1 mg/kg intravenous): 68.7%
SMILES: Cc1cc(N2CCN(CCCCc3nc4ccccc4c(=O)n3N)CC2)nc2ccccc12 [Example 4-4, 3-amino-2-[4-[4-(4-methylquinolin-2-yl)piperazin-1-yl]butyl]-3H-quinazolin-4-one]

SMILES: c1cc2ccoc2c(N2CCN3CCC[C@H]3C2)n1 [Production Example 102, 7-((8aS)-octahydropyrrolo[1,2-a]pyrazin-2-yl)furo[2,3-c]-pyridine]
- BC Inhibition (%) ([1]; dose 3.0 mg/kg intravenous): 61.5%

SMILES: Cn1c(CCCCN2CCN(c3ccc4ccccc4n3)CC2)nc2c(c1=O)CCCC2 [Example 7-1, 3-methyl-2-[4-(4-quinolin-2-ylpiperazin-1-yl)butyl]-5,6,7,8-tetrahydro-3H-quinazolin-4-one]
- BC Inhibition (%) ([1]; dose 0.1 mg/kg intravenous): 90.3%
- Number of excrements ([2]; 1 mg/kg oral administration): 5.8
- Number of excrements ([2]; 3 mg/kg oral administration): 3.8
- Number of excrements ([2]; 10 mg/kg oral administration): 2.3

- BC Inhibition (%) ([1]; dose 0.01 mg/kg intravenous): 58.5%
SMILES: Cc1cc(N2CCN(CCCCc3nc4c(c(=O)n3C)CCCC4)CC2)nc2ccccc12 [Example 7-6, 3-methyl-2-[4-[4-(4-methylquinolin-2-yl)piperazin-1-yl]butyl]-5,6,7,8-tetrahydro-3H-quinazolin-4-one]
- Number of excrements ([2]; 1 mg/kg oral administration): 5.4
- Number of excrements ([2]; 3 mg/kg oral administration): 4.0
- Number of excrements ([2]; 10 mg/kg oral administration): 2.9
